Laboratory results published in paper PMC3025356, “Mechanism of the Ca^2+-Dependent Interaction between S100A4 and Tail Fragments of Nonmuscle Myosin Heavy Chain IIA” (Journal of Molecular Biology, 2011).
Where two headings read alike, the source gives them in different places.

Columns and labels:
[1] = Isothermal titration calorimetry of Ca^2+ binding to S100A4 constructs
Procedure: Fig. 2 ITC records for Ca^2+ binding to S100A4 constructs: (a) 75 μM wild type at 30 °C; (b) 75 μM wild type at 10 °C; (c) 75 μM E33Q construct at 30 °C; (d) 300 μM D63N construct at 30 °C. For mutant constructs data at 10 °C, see Fig. S1. All preparations were dialysed against the same buffer of 20 mM NaCl, 10 mM Hepes, and 2 mM DTT (pH 7.5).
ITC data were collected using a VP-ITC microcalorimeter (MicroCal Ltd., Northampton, MA) and analysed by fitting to a single-site binding equation or a two-site binding equation using MicroCal Origin software.

[2] = test system: M111; experiment: NMR ^1H,^15N HSQC of labelled M111 on addition of full-length S100A4; type: binding, human; details: 1.5 molar excess of full-length S100A4
Procedure: Fig. 7 Chemical shift changes in the ^1H,^15N HSQC spectra of ^13C,^15N-labelled M111 on addition of full-length S100A4. Superposition of the spectra in free form (black) and in the presence of a 1.5 molar excess of S100A4 (red). Resonance assignments derived from the analysis of triple-resonance spectra are marked. In addition to sharp intense cross-peaks, the spectra contain broad low-intensity peaks that cannot be assigned due to low sensitivity.
All NMR samples were prepared in 20 mM 4-morpholineethanesulfonic acid, 20 mM NaCl, 5 mM CaCl2, and 5% D2O buffer (pH 6.1). DTT (2 mM) was added to the samples containing S100A4. Titration experiments were carried out at 0.2 mM S100A4 using 10 mM peptide solutions. Spectra for M111 backbone resonance assignments were measured using 0.4 mM protein solution. NMR spectra were obtained at 298 K using Bruker AVANCE DRX 600 or AVANCE DRX 800 spectrometers, which are both equipped with cryoprobes. Proton chemical shifts were referenced to external 2,2-dimethyl-2-silapentane-5-sulfonate. The ^15N and ^13C chemical shifts were referenced indirectly using recommended gyromagnetic ratios.[44] Spectra were processed with TopSpin (Bruker) and analysed using Analysis.[45] Three-dimensional HNCO, HN(CA)CO, HNCA, HN(CO)CA, HNCACB, and HN(CO)CACB experiments were used for the sequential assignment of the backbone NH, N, CO, C^α, and C^β resonances.

[3] = test system: M200 filamentous bundles; experiment: Electron microscopy of myosin IIA tail fragments; parameters: species or system human; details: two times stoichiometric S100A4, Ca^2+, 0.1 M Na-acetate
Procedure: Fig. 8 Characterisation of myosin IIA coiled-coil tail fragments. Metal-shadowed electron micrographs of (a) M200 and (b) M111 deposited from 0.5 M ammonium acetate. Scale bar represents 50 nm. (c and d) Electron micrographs of a negatively stained M200 tail fragment. Fields of M200 (c) in the absence and (d) in the presence of a 2-fold molar excess of S100A4, respectively. Arrows point to individual strands emerging from images of filamentous bundles. The samples were prepared in 0.1 M sodium acetate buffer, where M200 formed large filamentous aggregates but were solubilised in the presence of S100A4. Scale bar represents 200 nm (see Materials and Methods for details).
For negative staining, the stock solution of the M200 tail fragment was diluted with a solution consisting of 0.1 M Na-acetate, 3 mM MgCl2, 0.1 mM CaCl2, 10 mM imidazole, and 5 mM NaH2PO4 (pH 7.0), with or without 14 μM S100A4, to give a final concentration of 7 μM M200. Following dilution, 5 μl of the mixture was applied to a grid with a thin carbon film supported by a holey carbon film, and the grid was negatively stained using 1% uranyl acetate. […] Images were recorded on a 2000 × 2000 F224HD slow-scan CCD camera (TVIPS, Gauting, Germany) at a magnification of 65,000× (0.37 nm pixel^− 1). The lengths of nonoverlapping well-shadowed molecules were measured as described by Burgess et al.[47]

[4] = cited from earlier work
Procedure: S100A4 contains two tyrosine residues (one in each of the EF-hand domains), and mutating each in turn to phenylalanine enabled us to identify the source of the signal change. […] Ca^2+ binds to the S100A4 dimer with an affinity of around 2–6 μM. […] Regarding the assignment of the sites to EF1 or EF2, the E33Q mutant appears more similar to wild-type S100A4 than the D63N mutant and has an intact EF2 site, as determined by tyrosine and Quin-2 fluorescence (Fig. 3a; ...

[5] = cited from earlier work; remark: listed apart in the source
Description: Apart from the different methods used to study Ca^2+ binding, which have sensitivities over different concentration ranges, part of the variability in Kd values in the literature may arise from the self-association of S100A4. There is a general consensus[12,13,17,21,22] that S100A4 exists predominantly as a dimer at micromolar concentrations (indeed, this can lead to difficulties in interpreting literature values for stoichiometries quoted as ‘moles of Ca^2+ bound per mole of S100A4’ if the latter is not stated explicitly as being per monomer or per dimer). In the absence of Ca^2+, monomeric S ... || In the absence of added Ca^2+ (i.e., where the free “contaminant” [Ca^2+] in buffers would be of the order of 1 μM), mixing S100A4 with excess Quin-2 produced a small-amplitude signal (corresponding to 0.1 mol of Ca^2+ per mole of S100A4 monomer) with a rate constant of around 1 s^− 1.

n1 (Ca^2+ per monomer) ([1]; 10 °C, 75 μM protein (D63N 300 μM), 20 mM NaCl, 10 mM Hepes, 2 mM DTT, pH 7.5): 0.95 ± 0.014 Ca^2+ per monomer
n1 (Ca^2+ per monomer) ([1]; 30 °C, 75 μM protein (D63N 300 μM), 20 mM NaCl, 10 mM Hepes, 2 mM DTT, pH 7.5): 0.83 ± 0.2 Ca^2+ per monomer
stoichiometry (discussion) ([1]; ITC): one Ca^2+ per S100A4 monomer
Kd ([1]; first site, Ca^2+ binding, 30 °C, 75 μM protein (D63N 300 μM), 20 mM NaCl, 10 mM Hepes, 2 mM DTT, pH 7.5, read-out: K1d): 1700 nM
Kd ([1]; first site, 10 °C, wild type and E33Q cooperative, read-out: K1d): 1600 ± 400 nM
Kd ([1]; one Ca^2+ per S100A4 monomer, read-out: Kd for Ca^2+ (discussion)): 1700 nM
Kd ([1]; read-out: Ca^2+ affinity of S100A4 dimer (discussion)): 2000 to 6000 nM
N2 (Ca^2+ per monomer) ([1]; second site, 30 °C): 0.42 ± 0.27 Ca^2+ per monomer
Kd ([1]; second site, 30 °C, read-out: K2d): 5700 ± 1100 nM
stoichiometry of the higher-affinity site ([1]; summary of Table 1): 0.8–0.9 Ca^2+ per monomer
Kd ([1]; temperatures of ≥ 30 °C, read-out: Kd of second site (discussion)): 6000 nM
Substance: S100A4: recombinant S100A4 expressed in E. coli BL21(DE3)
resonance broadening in M111 on S100A4 addition [2]: additional broadening of resonances in the 1926–1939 region
M200 filamentous bundles after S100A4 addition [3]: no trace of filamentous bundles was observed
Ca^2+ bound per S100A4 monomer ([4]; amplitude of tyrosine fluorescence change on addition of Ca^2+): 1.7 ± 0.18 Ca^2+ bound per S100A4 monomer
Ca^2+ dissociation rate constant (tyrosine) [4]: 20 s^− 1
protein concentration at which monomer is detected ([5]; absence of Ca^2+): below 2 μM
concentration at which tetrameric and higher aggregates become significant ([5]; presence of Ca^2+): exceeding 20 μM
Ca^2+ affinity of tetramer relative to dimer ([5]; suggested by ultracentrifuge data): about 20 -fold
